Test results reported in publication PMC6151560, “Antibacterial and Antitubercular Activities of Cinnamylideneacetophenones” (Molecules : A Journal of Synthetic Chemistry and Natural …, 2017).
Values after ≈ are worked out from the molar mass of the structure shown. Like-named read-outs stand apart in the source and are kept apart here.

What was measured:
[1] = test system: Pseudomonas aeruginosa (ATCC 15442); test: Antibacterial broth microdilution (MIC), P. aeruginosa; conditions: for MIC: ATCC15442, 24 h, read-out: Pa MIC
[2] = test system: Streptococcus sanguinis (ATCC 10557); test: Antibacterial broth microdilution (MIC/MBC), S. sanguinis; conditions: for MIC: ATCC10557, 24 h
[3] = test system: Streptococcus mutans (ATCC 25175); test: Antibacterial broth microdilution (MIC/MBC), S. mutans; conditions: for MIC: ATCC25175, 24 h; for MBC: ATCC25175, read-out: Sm MBC
[4] = test system: Escherichia coli (ATCC 10536); test: Antibacterial broth microdilution (MIC), E. coli; conditions: for MIC: ATCC10536, 24 h, read-out: Ec MIC
[5] = test system: Mycobacterium tuberculosis H37Rv (ATCC 27294); test: Antitubercular REMA (Resazurin Microtiter Assay); type: cell-based; conditions: read-out: Mt MIC
M. tuberculosis = test system: M. tuberculosis; set-up: method as in PMID 26400221; conditions: cited from earlier work
[6] = test system: Staphylococcus aureus (ATCC 14458); test: Antibacterial broth microdilution (MIC/MBC), S. aureus; conditions: for MIC: ATCC14458, 24 h; for MBC: ATCC14458, read-out: Sa MBC
E. coli = test system: E. coli; set-up: method as in PMID 17662960; conditions: cited from earlier work
S. aureus strains = test system: S. aureus strains; set-up: method as in PMID 28066373; conditions: cited from earlier work
[7] = Partition coefficient log Po/w by HPLC-PDA (OECD method); conditions: n-octanol/water (from HPLC retention on a C-18 column)
[8] = read-out: Ss MIC, Streptococcus sanguinis, broth microdilution, 24 h, tested 3.9 to 500 µM
[9] = read-out: Sm MIC, Streptococcus mutans, broth microdilution, 24 h, tested 3.9 to 500 µM
[10] = Mycobacterium tuberculosis, 168 h
[11] = broth microdilution, 24 h, tested 3.9 to 500 µM
[12] = M. tuberculosis H37Rv, REMA, 7 days, lowest concentration giving 90% inhibition of growth
[13] = Mycobacterium tuberculosis, 168 h, M. tuberculosis H37Rv, REMA, 7 days, lowest concentration giving 90% inhibition of growth
[14] = read-out: Sa MIC, Staphylococcus aureus, broth microdilution, 24 h, tested 3.9 to 500 µM

Row | Compound | MIC [1] [µM] | MIC [2, 8] [µM] | MIC [3, 9] [µM] | MIC [4] [µM] | MIC [5, 13] [µM] | MIC [6, 14] [µM] | chromatographic logP [7] | further results
1 | [H]/N=C(\N/C(=N/[H])NCCCCCCNC(=N)NC(=N)Nc1ccc(Cl)cc1)Nc1ccc(Cl)cc1 [CHX, chlorhexidine, reference compound] | 19.4 (≈ 9.81 µg/mL) | 4.7 (≈ 2.38 µg/mL) | 2.4 (≈ 1.21 µg/mL) |  |  |  |  | MBC ([2]; ATCC10557, read-out: Ss MBC): 9.5 µM (≈ 4.8 µg/mL); MBC [3]: 4.7 µM (≈ 2.38 µg/mL)
2 | O=C/C=C/c1ccccc1 [Compound 1, Cinnamaldehyde, reference compound] | > 500 |  |  | > 500 |  |  |  | Ec MIC ([4]; broth microdilution, 24 h): >500 µM; MIC [5, 10]: > 200 µM; MIC against M. tuberculosis (M. tuberculosis): 3.12 µg/mL; MIC against M. tuberculosis (M. tuberculosis; converted value in brackets): 23 µM; MIC ([6]; read-out: Sa MIC): > 500 µM; Sa MIC [6, 11]: >500 µM; Pa MIC ([1]; broth microdilution, 24 h): >500 µM; MIC ([2]; read-out: Ss MIC): > 500 µM; Ss MIC [2, 11]: >500 µM; MIC ([3]; read-out: Sm MIC): > 500 µM; Sm MIC [3, 11]: >500 µM; MIC against E. coli (E. coli): 1000 µg/mL; MIC against E. coli (E. coli; converted value in brackets): 7566 µM; MIC against S. aureus strains (S. aureus strains): 250 µg/mL; MIC against S. aureus strains (S. aureus strains; converted value in brackets): 1891 µM
3 | O=C(/C=C/C=C/c1ccccc1)c1ccccc1 [Compound 2, (2E,4E)-1,5-diphenylpenta-2,4-dien-1-one] | > 500 | > 500 | > 500 | > 500 | 57.2 to 70.9 (≈ 13.4 to 16.6 µg/mL) | > 500 | 3.2 | MIC [5, 12]: 57.2 µM (≈ 13.4 µg/mL)
4 | Nc1cccc(C(=O)/C=C/C=C/c2ccccc2)c1 [Compound 5, (2E,4E)-1-(3-aminophenyl)-5-phenylpenta-2,4-dien-1-one] | > 500 | > 500 | 313 (≈ 78 µg/mL) | > 500 | > 200 | > 500 | 2.5 | MBC [3]: 313 µM (≈ 78 µg/mL)
5 | COc1cccc(C(=O)/C=C/C=C/c2ccccc2)c1 [Compound 6, (2E,4E)-1-(3-methoxyphenyl)-5-phenylpenta-2,4-dien-1-one] | > 500 | ≥ 296 | ≥ 296 | > 500 | > 200 | ≥ 296 | 3.3 | MBC [6]: 296 µM (≈ 78.2 µg/mL)
6 | COc1ccc(C(=O)/C=C/C=C/c2ccccc2)cc1 [Compound 7, (2E,4E)-1-(4-methoxyphenyl)-5-phenylpenta-2,4-dien-1-one] | > 500 | ≥ 296 | ≥ 296 | > 500 | 57.2 to 70.9 (≈ 15.1 to 18.7 µg/mL) | ≥ 296 | 3.2 | MIC [5, 12]: 66.6 µM (≈ 17.6 µg/mL)
7 | COc1cc(C(=O)/C=C/C=C/c2ccccc2)ccc1O [Compound 9, (2E,4E)-1-(4-hydroxy-3-methoxyphenyl)-5-phenylpenta-2,4-dien-1-one] | > 500 | > 500 | > 500 | > 500 | 83.5 (≈ 23.4 µg/mL) | 279 (≈ 78.2 µg/mL) | 2.7 | MBC [6]: 279 µM (≈ 78.2 µg/mL)
8 | O=C(/C=C/C=C/c1ccccc1)c1ccc(F)cc1 [Compound 10, (2E,4E)-1-(4-fluorophenyl)-5-phenylpenta-2,4-dien-1-one] | > 500 | > 500 | > 500 | > 500 | 57.2 to 70.9 (≈ 14.4 to 17.9 µg/mL) | > 500 | 3.3 | MIC [5, 12]: 67.4 µM (≈ 17 µg/mL)
9 | O=C(/C=C/C=C/c1ccccc1)c1ccc(Cl)cc1 [Compound 11, (2E,4E)-1-(4-chlorophenyl)-5-phenylpenta-2,4-dien-1-one] | > 500 |  |  | > 500 |  |  |  | chromatographic logP (physchem): 3.7; MIC [5, 10]: > 200 µM; MIC ([6]; read-out: Sa MIC): > 500 µM; MIC ([2]; read-out: Ss MIC): > 500 µM; MIC ([3]; read-out: Sm MIC): > 500 µM
10 | O=C(/C=C/C=C/c1ccccc1)c1ccc(Br)cc1 [Compound 12, (2E,4E)-1-(4-bromophenyl)-5-phenylpenta-2,4-dien-1-one] | > 500 |  |  | > 500 |  |  |  | chromatographic logP (physchem): 3.8; MIC [5, 10]: > 200 µM; MIC ([6]; read-out: Sa MIC): > 500 µM; MIC ([2]; read-out: Ss MIC): > 500 µM; MIC ([3]; read-out: Sm MIC): > 500 µM
11 | O=C(/C=C/C=C/c1ccccc1)c1ccc(Cl)c(Cl)c1 [Compound 13, (2E,4E)-1-(3,4-dichlorophenyl)-5-phenylpenta-2,4-dien-1-one] | > 500 | > 500 | > 500 | > 500 | > 200 | > 500 | 4.1 | 
